Measurements published in the supplement of paper PMC11061612.

Legend:
Capivasertib = compound: C1CN(CCC1(C(=O)N[C@@H](CCO)C2=CC=C(C=C2)Cl)N)C3=NC=NC4=C3C=CN4 [Capivasertib]; conditions: max 10 µM
Procedure, shortened: (§1)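 Cancer cell lines were seeded into 1536-well plates in 7.5 μl medium (DMEM/F12 or RPMI, 10% FBS), held 24 hours at 37°C and 5% CO2, and dosed for 72 hours with final DMSO typically 0.2%. Luminescence from CellTiter-Glo 2.0, scaled between blank-well and DMSO-well means, served as viability. The single-agent IC50 was obtained from dose-response fits with a non-linear mixed effects model, each fit being a two-parameter logistic curve.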

AZD1775 = compound: C=CCn1c(=O)c2cnc(Nc3ccc(N4CCN(C)CC4)cc3)nc2n1-c1cccc(C(C)(C)O)n1 [AZD1775]; conditions: max 3 µM
Procedure, shortened: as §1

Trametinib = compound: CC(=O)Nc1cccc(-n2c(=O)n(C3CC3)c(=O)c3c(Nc4ccc(I)cc4F)n(C)c(=O)c(C)c32)c1 [Trametinib]; conditions: max 1 µM
Procedure, shortened: as §1

Palbociclib = compound: CC(=O)c1c(C)c2cnc(Nc3ccc(N4CCNCC4)cn3)nc2n(C2CCCC2)c1=O [Palbociclib]; conditions: max 10 µM
Procedure, shortened: as §1

AZD1390 = compound: CC(C)n1c(=O)n(C)c2cnc3cc(F)c(-c4ccc(OCCCN5CCCCC5)nc4)cc3c21 [AZD1390]; conditions: max 0.3 µM
Procedure, shortened: as §1

Venetoclax = compound: CC1(C)CCC(CN2CCN(c3ccc(C(=O)NS(=O)(=O)c4ccc(NCC5CCOCC5)c([N+](=O)[O-])c4)c(Oc4cnc5[nH]ccc5c4)c3)CC2)=C(c2ccc(Cl)cc2)C1 [Venetoclax]; conditions: max 1 µM
Procedure, shortened: as §1

Dasatinib = compound: CC1=C(C(=CC=C1)Cl)NC(=O)C2=CN=C(S2)NC3=CC(=NC(=N3)C)N4CCN(CC4)CCO [Dasatinib]; conditions: max 2 µM
Procedure, shortened: as §1

SG3199 = compound: CC1=CN2[C@@H](C1)C=NC3=CC(=C(C=C3C2=O)OC)OCCCCCOC4=C(C=C5C(=C4)N=C[C@@H]6CC(=CN6C5=O)C)OC [SG3199]; conditions: max 0.001 µM
Procedure, shortened: as §1

AZD2811 = compound: CCN(CCO)CCCOc1ccc2c(Nc3cc(CC(=O)Nc4cccc(F)c4)[nH]n3)ncnc2c1 [AZD2811]; conditions: max 1 µM
Procedure, shortened: as §1

SN-38 = compound: CCc1c2c(nc3ccc(O)cc13)-c1cc3c(c(=O)n1C2)COC(=O)[C@]3(O)CC [SN-38]; conditions: max 0.3 µM
Procedure, shortened: as §1

AZD0156 = compound: CN(C)CCCOc1ccc(-c2ccc3ncc4c(c3c2)n(C2CCOCC2)c(=O)n4C)cn1 [AZD0156]; conditions: max 3 µM
Procedure, shortened: as §1

AZD4320 = compound: CN(CC[C@H](CSC1=CC=CC=C1)NC2=C(C=C(C=C2)S(=O)(=O)NC(=O)C3=CC=C(C=C3)N4CCC(CC4)[C@H](C5=CC=CC=C5C6=CC=C(C=C6)Cl)O)S(=O)(=O)C(F)(F)F)CCO [AZD4320]; conditions: max 1 µM
Procedure, shortened: as §1

Alisertib = compound: COc1cc(Nc2ncc3c(n2)-c2ccc(Cl)cc2C(c2c(F)cccc2OC)=NC3)ccc1C(=O)O [Alisertib]; conditions: max 10 µM
Procedure, shortened: as §1

Gefitinib = compound: COc1cc2ncnc(Nc3ccc(F)c(Cl)c3)c2cc1OCCCN1CCOCC1 [Gefitinib]; conditions: max 10 µM
Procedure, shortened: as §1

Prexasertib = compound: COc1cccc(OCCCN)c1-c1cc(Nc2cnc(C#N)cn2)n[nH]1 [Prexasertib]; conditions: max 1 µM
Procedure, shortened: as §1

Doxorubicin = compound: COc1cccc2c1C(=O)c1c(O)c3c(c(O)c1C2=O)C[C@@](O)(C(=O)CO)C[C@@H]3O[C@H]1C[C@H](N)[C@H](O)[C@H](C)O1 [Doxorubicin]; conditions: max 1 µM
Procedure, shortened: as §1

AZD5153 = compound: COc1nnc2ccc(N3CCC(c4ccc(OCCN5CCN(C)C(=O)[C@H]5C)cc4)CC3)nn12 [AZD5153]; conditions: max 1 µM
Procedure, shortened: as §1

Lapatinib = compound: CS(=O)(=O)CCNCc1ccc(-c2ccc3ncnc(Nc4ccc(OCc5cccc(F)c5)c(Cl)c4)c3c2)o1 [Lapatinib]; conditions: max 10 µM
Procedure, shortened: as §1

AZD8186 = compound: C[C@@H](Nc1cc(F)cc(F)c1)c1cc(C(=O)N(C)C)cc2c(=O)cc(N3CCOCC3)oc12 [AZD8186]; conditions: max 3 µM
Procedure, shortened: as §1

Crizotinib = compound: C[C@@H](Oc1cc(-c2cnn(C3CCNCC3)c2)cnc1N)c1c(Cl)ccc(F)c1Cl [Crizotinib]; conditions: max 10 µM
Procedure, shortened: as §1

Savolitinib = compound: C[C@@H](c1ccc2nccn2c1)n1nnc2ncc(-c3cnn(C)c3)nc21 [Savolitinib]; conditions: max 1 µM
Procedure, shortened: as §1

AZD6738 = compound: C[C@@H]1COCCN1C2=NC(=NC(=C2)C3(CC3)[S@](=N)(=O)C)C4=C5C=CNC5=NC=C4 [AZD6738]; conditions: max 10 µM
Procedure, shortened: as §1

AZD5991 = compound: Cc1c2c(nn1C)CSCc1cc(n(C)n1)CSc1cc(c3ccccc3c1)OCCCc1c(C(=O)O)n(C)c3c-2c(Cl)ccc13 [AZD5991]; conditions: max 1 µM
Procedure, shortened: as §1

AZD7648 = compound: Cc1cc2ncnn2cc1Nc1ncc2c(n1)n(C1CCOCC1)c(=O)n2C [AZD7648]; conditions: max 10 µM
Procedure, shortened: as §1

Taselisib = compound: Cc1nc(-c2cn3c(n2)-c2ccc(-c4cnn(C(C)(C)C(N)=O)c4)cc2OCC3)n(C(C)C)n1 [Taselisib]; conditions: max 10 µM
Procedure, shortened: as §1

Selumetinib = compound: Cn1cnc2c(F)c(Nc3ccc(Br)cc3Cl)c(C(=O)NOCCO)cc21 [Selumetinib]; conditions: max 10 µM
Procedure, shortened: as §1

Olaparib = compound: O=C(c1cc(Cc2n[nH]c(=O)c3ccccc23)ccc1F)N1CCN(C(=O)C2CC2)CC1 [Olaparib]; conditions: max 10 µM
Procedure, shortened: as §1

Cell Line	IC50, cell viability 72 h (Capivasertib) [nM]	IC50, cell viability 72 h (AZD1775) [nM]	IC50, cell viability 72 h (Trametinib) [nM]	IC50, cell viability 72 h (Palbociclib) [nM]	IC50, cell viability 72 h (AZD1390) [nM]	IC50, cell viability 72 h (Venetoclax) [nM]	IC50, cell viability 72 h (Dasatinib) [nM]	IC50, cell viability 72 h (SG3199) [nM]	IC50, cell viability 72 h (AZD2811) [nM]	IC50, cell viability 72 h (SN-38) [nM]	IC50, cell viability 72 h (AZD0156) [nM]	IC50, cell viability 72 h (AZD4320) [nM]	IC50, cell viability 72 h (Alisertib) [nM]	IC50, cell viability 72 h (Gefitinib) [nM]	IC50, cell viability 72 h (Prexasertib) [nM]	IC50, cell viability 72 h (Doxorubicin) [nM]	IC50, cell viability 72 h (AZD5153) [nM]	IC50, cell viability 72 h (Lapatinib) [nM]	IC50, cell viability 72 h (AZD8186) [nM]	IC50, cell viability 72 h (Crizotinib) [nM]	IC50, cell viability 72 h (Savolitinib) [nM]	IC50, cell viability 72 h (AZD6738) [nM]	IC50, cell viability 72 h (AZD5991) [nM]	IC50, cell viability 72 h (AZD7648) [nM]	IC50, cell viability 72 h (Taselisib) [nM]	IC50, cell viability 72 h (Selumetinib) [nM]	IC50, cell viability 72 h (Olaparib) [nM]
SF268 (Low Grade Glioma)	> 10000	> 3000	> 1000	> 10000	> 300	> 1000	> 2000	> 1	> 1000	23.5	> 3000	> 1000	7280	> 10000	643	> 1000	> 1000	> 10000	> 3000	> 10000	> 1000	> 10000	> 1000	> 10000	> 10000	> 10000	> 10000
SU-DHL-10 (B-Cell Non-Hodgkin's Lymphoma)	505	586	> 1000	435	> 300	> 1000	62.8	> 1	29.2	13	> 3000	> 1000	684	7020	27.2	442	9.5	4970	1080	2480	> 1000	2620	25.5	> 10000	1340	> 10000	> 10000
WM278 (Melanoma)	> 10000	> 3000	85.8	> 10000	> 300	> 1000	> 2000	> 1	> 1000	200	> 3000	> 1000	> 10000	> 10000	413	> 1000	> 1000	> 10000	> 3000	> 10000	> 1000	> 10000	> 1000	> 10000	> 10000	3570	> 10000
WM793B (Melanoma)	> 10000	1930	175	> 10000	> 300	> 1000	> 2000	> 1	> 1000	22.8	> 3000	> 1000	> 10000	> 10000	27.8	471	493	> 10000	> 3000	> 10000	> 1000	3100	> 1000	> 10000	2800	7020	> 10000
